In test [1] the test system is dexamethasone-treated mice. The test is described as follows: Adipose and sinusoid volume of distal femoral epiphysis, 90 day model. In kind it is in vivo, BALB/c mice. How it is done: FIG. 10A-10B. Adipose and sinusoid volume of femurs from treated mice. Mice were treated with placebo (PL), dexamethasone alone (Dex), Dex+250 μg/kg LLP2A-Ale, Dex+500 μg/kg LLP2A-Ale, or Dex+750 μg/kg LLP2A-Ale as described above for FIG. 7. (A) Mice were assessed for adipose volume within the distal femoral epiphysis region. […] (B) Mice were assessed for sinusoids in the bone marrow.
(§1) Both the right and left distal femurs were fixed in 10% neutral buffered formalin and were shaken for 3 days, then decalcified in 5% EDTA until the bones were fully decalcified. The specimens were then processed in ascending concentrations of ethanol and embedded in paraffin. Tissue sections were cut into 5 microns sections, stained with hematoxylin and eosin and evaluated for the presence of osteonecrosis by bright field microscopy at 20× magnification. Experimental methods are also described in Mohan et al., Calif Tissue Int (2016) doi:10.1007/s00223-016-0195-6, which is incorporated herein by reference in its entirety for all purposes. Osteonecrosis was detected using modified criteria reported by Yang el al., (a mouse model for glucocorticoid-induced osteonecrosis: Effect of a steroid holiday. J Orthop Res. 2009; 27:169-75) which defines osteonecrosis as requiring all of the following changes: (1) empty lacunae, (2) pyknotic osteocyte nuclei in areas of empty lacunae and necrosis of adjacent bone marrow, (3) presence of excessive fat cells in the bone marrow, (4) cartilage degradation and (5) presence of fibrin thrombi in the blood vessels. In addition, trabecular bone volume, adipose volume, sinusoid volume and osteoblast surface at the distal femoral epiphyses were measured. Empty lacunae density was calculated by empty lacunae/total osteocytes within the entire distal femoral epiphysis region for each sample. Each section was scored by two experienced histologists, then a consensus reading was performed by two additional experienced histologists.

Test [2] deals with glucocorticoid-treated mice. The test is described as follows: Trabecular bone volume in glucocorticoid-treated mice. To be noted: GC 28 days then treatment. In kind it is in vivo. How it is done:
FIG. 6. Trabecular bone volume in glucocorticoid-treated mice. Mice were treated for 28 days with glucocorticoid (GC), then treated with either LLP2A-Ale, PTH, or LLP2A-Ale+PTH. The outcome measure was the change in trabecular bone mass from day 28 to 56, measured in vivo at the distal femur (left panel) and change in trabecular bone mass for the vertebral trabecular bone volume (right panel).
Changes in trabecular bone mass during the treatment period for the distal femur and vertebral trabecular bone volume were measured.

The test system of test [3] is dexamethasone-treated mice. The test is described as follows: 30 and 45 day prevention study: trabecular bone histology of distal femur epiphyses. In kind it is in vivo, BALB/c mice. How it is done: (§2) The efficacy of LLP2A-Ale and hPTH (1-34) was evaluated over a 30 and 45 day study using a mouse model of glucocorticoid-induced osteonecrosis. Seven week-old male BALB/c mice were randomized into Placebo group (fresh water), glucocorticoid only (4 mg/L dexamethasone (Dex) in drinking water), Dex+250 μg/kg LLP2A-Ale, Dex+500 μg/kg LLP2A-Ale, or Dex+40 μg/kg hPTH (administered five times a week) for 30 or 45 days. At day 30 or 45, the mice were sacrificed. Study endpoints included histological evidence of osteonecrosis, bone mass, and prevalent blood vessels (CD31 and Endomucin expression) in the distal femur, and was performed as set forth in Example 2. Non-parametric Kruskal-Wallis tests were used to determine the differences between the groups.

The subject of test [4] is glucocorticoid-treated mice. The experiment in a line: 56 day mouse model of glucocorticoid-induced osteonecrosis: femur blood vessel / vascular density by microCT. In kind it is in vivo. The procedure:
FIG. 2. Blood vessel density of femurs from glucocorticoid-treated mice. 4 month old male mice were treated glucocorticoid (“GC”) or placebo for 56 days. At day 28 a group of glucocorticoid-treated mice were treated with LLP2A-Ale or PTH for an additional 28 days.
FIG. 3. Vascular density of femurs from glucocorticoid-treated mice. 4 month old male mice were treated with glucocorticoid or placebo for 56 days. At day 28 a group of glucocorticoid-treated mice were treated with LLP2A-Ale or PTH for an additional 28 days. At day 56 animals were given a contrast agent and then sacrificed and then the animals femurs were decalcified and then scanned by microCT.
The efficacy of LLP2A-Ale was evaluated using a mouse model of glucocorticoid-induced osteonecrosis. 4-month-old male mice were treated for 56 days with glucocorticoids. At day 28, a group of mice was treated with either LLP2A-Ale or PTH for an additional 28 days. Blood vessel density of the femur was measured after sacrifice by microCT according to published methods. […] Vascular density of the femurs of glucocorticoid-treated mice subsequently treated with LLP2A-Ale or PTH was also assessed by giving the mice a contrast agent, then sacrificing the mice, decalcifying the femurs, and scanning the femurs by microCT. […] Without being bound to a particular theory, it is believed that LLP2A-Ale promotes increased vascularity by bringing MSCs to the bone that is turning over with osteonecrosis, which stimulates new blood vessel formation, which in turn is needed to stimulate new bone formation in the osteonecrotic bone.

Test [5] has as its system dexamethasone-treated mice. The experiment in a line: Empty lacunae density in distal femoral epiphysis, 90 day model. In kind it is in vivo, BALB/c mice. Particulars: day 90. How it is done:
FIG. 8A-8B. Empty lacunae density of femurs from in dexamethasone-treated mice. Mice treated with placebo (PL), dexamethasone alone (Dex), Dex+250 μg/kg LLP2A-Ale, Dex+500 μg/kg LLP2A-Ale, or Dex+750 μg/kg LLP2A-Ale as described above for FIG. 7 were assessed for empty lacunae density within the distal femoral epiphysis region. Empty lacunae density was calculated by determining the number of empty lacunae in the entire distal femoral epiphysis region divided by the total number of osteocytes within the same region for each specimen. In the Dex only group, 75% of the samples had 10% or more empty lacunae, as compared to 44-62% of the samples in LLP2A-Ale-treated groups. A higher number of LLP2A-Ale 250 μg/kg, LLP2A-Ale 500 μg/kg, and LLP2A-Ale 750 μg/kg—treated samples had less than 10% empty lacunae as compared to Dex only treatment.
as §1, with “Experimental methods are also described in Mohan et al., Calif Tissue Int (2016) doi:10.1007/s00223-016-0195-6, which is incorporated herein by reference in its entirety for all purposes.” left out, “Each section was scored by two experienced histologists, then a consensus reading was performed by two additional experienced histologists.” left out

Test [6] has as its system CD31 and Endomucin expression. The test is described as follows: 30 and 45 day prevention study: blood vessels in the distal femur (CD31 and Endomucin expression). The class given is in vivo, BALB/c mice. To be noted: 30 and 45 day study, conclusion. How it is done: as §2

“Also recorded” adds a separate entry of the source.

In the case of `Cc1ccccc1NC(=O)Nc1ccc(CC(=O)N[C@@H](CCCCNC(=O)/C=C/c2cccnc2)C(=O)N[C@@H](CCCC(=O)O)C(=O)NC2(C(=O)NCCOCCOCCNC(=O)CCC(=O)NCCOCCOCCNC(=O)CCC(=O)N[C@@H](CCCCNC(=O)[C@H](N)CSC3CC(=O)N(CC4CCC(C(=O)NCCCC(O)(P(=O)(O)O)P(=O)(O)O)CC4)C3=O)C(N)=O)CCCCC2)cc1` (stereo partly drawn) [LLP2A-Ale], the “Sinusoid volume on increasing the dose” value in test [1] (LLP2A-Ale above 250 μg/kg vs 250 μg/kg) is on record as “marginal decrease”. In test [1] (all three dosages (250, 500, 750 μg/kg) vs Dex alone, day 90 (FIG. 10A)), the “Adipose volume within the distal femoral epiphysis” value was “reduced adipose volumes”. Also, in test [1] (all three dosages vs placebo or Dex alone, day 90 (FIG. 10B)), the “Sinusoid volume in the bone marrow” value is given as “increased sinusoid volumes”. Also, in test [2] (change from day 28 to 56, measured in vivo (FIG. 6 left)), the “Change in trabecular bone mass/volume at the distal femur” value was “increased the distal femur trabecular bone volume to the baseline/sham level”. The “Vertebral trabecular bone volume” value in test [2] (day 28 to 56 (FIG. 6 right)) is recorded as “increased the bone volume relative to the glucocorticoid-treated mice”. For the same molecule, the Trabecular bone volume entry in test [3] (day 30 and 45, Dex vs placebo, treated vs Dex (p<0.05)) was “higher bone volume”. Moreover, the Trabecular separation entry in test [3] (vs Dex group, day 30 and 45 (p<0.05)) was “lower trabecular separation”. For the same molecule, the “Blood vessel density of the femur” value in test [4] (4 month old male mice, GC 56 days, LLP2A-Ale or PTH from day 28 for 28 days, microCT after sacrifice (FIG. 2)) is recorded as “significantly higher than the negative control; also recorded: significantly different from all other groups”. In addition, the “Vascular density of femurs” value in test [4] (contrast agent at day 56, decalcified femurs scanned by microCT (FIG. 3), vs GC alone) is reported as “increased vascular density compared to glucocorticoid alone; also recorded: increased vascular density compared to GC alone”. The “Samples with less than 10% empty lacunae” value in test [5] (LLP2A-Ale 250, 500, 750 μg/kg vs Dex only) is given as “more samples; also recorded: higher number”. For the same molecule, the “Samples with 10% or more empty lacunae” value in test [5] (distal femoral epiphysis, Dex only vs LLP2A-Ale 250, 500, 750 μg/kg groups (FIG. 8A-B)) was 44-62%. The “Vascular integrity of the distal femur” value in test [6] is on record as “maintained the vascular integrity”.
